Assay results as given in article PMC4373826, “Antiviral Effect of Methylated Flavonol Isorhamnetin against Influenza” (PLoS ONE, 2015).
Marks after values point to notes of the source that are not given here.

What was measured:
Atg-5, Atg-7, and LC3B = assay: RT-PCR of autophagy-related genes; type: cell-based, canine; conditions: 50 μM
Method: MDCK cells were seeded in 6-well plates and incubated overnight for 80% confluence. After the medium was removed, the cells were washed twice with PBS and infected with the virus as described in the antiviral assay section. Total RNA was isolated using Trizol (Invitrogen, Waltham, MA, USA) according to the manufacturer’s instructions. Synthesis of cDNA was performed using 5 μg of total RNA with MMLV reverse transcriptase (Promega, Madison, WI, USA). The primer sequences used in our study were as follows: HA (forward, 5′-[…]-3′;reverse,5′-[…]-TGACACT-3′); NA (forward, 5′-[…]-3′; reverse,5′-[…]-3); ATG-5 (forward, 5′-[…]-AACAG-3′; reverse, 5′-[…]-3′); ATG-7 (forward, 5′-[…]-3′; reverse, 5′-[…]-A-3′); LC3B (forward, 5′-[…]-3′; reverse, 5′-CTGG-[…]-3′); and GAPDH (forward, 5′-[…]-GGAGC-3′; reverse, 5′-[…]-3′).The expression of mRNA was normalized to that of the control housekeeping gene, GAPDH.

LC3B = assay: Western blot for LC3B lipidation; type: cell-based, canine; conditions: 50 μM; post-treatment
Excerpt: Autophagy can also be measured by changes in LC3B localization, because the degree of conversion of LC3B-I to LC3B-II provides an indicator of autophagic activity. Western blotting detected LC3B as 2 bands: cytosolic LC3B-I and membrane-bound LC3B-II (which is bound to the autophagosome membrane). The molecular weight of LC3B-II is greater than that of LC3B-I. However, due to its hydrophobicity, LC3B-II migrates faster in SDS-PAGE, and therefore, has a lower apparent molecular weight.
To prepare whole-cell extracts, cells were washed 3 times using cold PBS, scraped from the dishes, and suspended in protein extraction buffer containing 1% Triton X-100 (Amresco), 100 mM Tris-HCl, 10 mM NaCl, 10% glycerol, 1 mM sodium orthovanadate (Sigma-Aldrich), 50 mM sodium fluoride (Sigma-Aldrich), and 1 mM phenylmethylsulfonyl fluoride (PMSF; Sigma-Aldrich). After incubation on ice for 30 min, lysates were centrifuged and proteins in the supernatants were quantified using the Bradford Protein Assay Reagent (Bio-Rad). Protein samples were separated via 10% SDS-PAGE and transferred to nitrocellulose membranes ([…]; Protran, Newton, NJ, USA). The membranes were blocked using 5% nonfat dry milk and 0.1% Tween-20 in Tris-buffered saline and probed with the primary antibody. […]

[1] = test system: influenza A/PR/8/34 (H1N1); assay: In ovo virus titer in embryonated chicken egg; type: in vivo
Method: Virus was serially diluted (10-fold serial dilution) and inoculated into the eggs, and then the virus titers were calculated as log10EID50/ml. At the cellular level, virus titration was determined via the hemagglutination assay (as described in detail in the WHO surveillance guidelines) and by the cytopathic effect (CPE) of MDCK cells induced by viral infection, and expressed as 50% tissue culture infectious doses (TCID50), which were calculated based on the method of Reed and Muench.In mice, 50% mouse lethal dose (MLD50) was defined as 50% egg infective dose (EID50) that led to 50% mice mortality that calculated according to Reed and Muench. The flavonoids quercetin, kaempferol, isorhamnetin, diosmetin, and eriodictyol were purchased from the Indofine Chemical Company, Hillsborough, NJ, USA. The flavonoids and PD-98059 (MEK inhibitor, Calbiochem, La Jolla, CA, USA) were dissolved in dimethylsulfoxide (DMSO, Sigma-Aldrich).The final concentration of DMSO in the culture media is 0.2% (v/v). Tamiflu (Oseltamivir, 75 mg) was purchased from Roche-Korea (Seoul, South Korea) Co. Ltd.

[2] = Cytotoxicity assay (EZ-Cytox) in MDCK cells; type: cell-based, canine; conditions: dog; MDCK cells, 48 hr
Method: To determine the 50% cytotoxic concentration (CC50) for each of the tested flavonoid compounds, MDCK cells were seeded onto 96-well plates (NUNC, Penfield, NY, USA) at a density of 1 × 10^4 cells per well and incubated overnight for 80% confluence. MDCK cells were washed twice with PBS and the culture medium was replaced with medium containing serially diluted flavonoids (concentrations from 10μM up to 300 μM) for 48 hr at 37°C in a 5% CO2atmosphere. After the incubation period, the flavonoid-containing media was replaced with new media containing 10% EZ-Cytox (Daeil Lab Service, Seoul, South Korea), and the cells were incubated in the dark for 3 hr at 37°C in a 5% CO2 atmosphere. The optical density was measured at 480 nm using an x-Mark spectrophotometer (Bio-Rad, Hercules, CA, USA). Cytotoxicity was estimated by comparing the cell survival rate of the flavonoids-treated cells and the DMSO-treated cells with the control (virus-untreated) cells. The control cell values were arbitrarily set as the 100% survival rate. The treated cells values were normalized to the control cell values. The calculation of CC50 was carried out as described in detail in S1 Text.
The 50% cytotoxic concentration (CC50) was calculated according to the following equation:
Cytotoxicity (%) = [100-(ODt/ODs)] x100
ODt: The optical density (OD) of cells treated with the tested flavonoids.
ODs: The OD of cells treated with the control solvent (0.2 % DMSO).
After obtaining the results, we calculated the concentration that induces 50% cell death using the following equation:
(X2 - X1) X (50-Y1) / (Y2 - Y1) + X1. Where, X1 represents the lower concentration used in this experiment, while X2 represents the higher concentration. Y1 represents the mean of the percentage of the viable cells at X1 concentration. On the other hand, Y2 represents the mean of the percentage of the viable cells at X2 concentration.”

COc1cc(-c2oc3cc(O)cc(O)c3c(=O)c2O)ccc1O [Isorhamnetin, isorhamnetin]
virus-induced overexpression of autophagy-related genes Atg-5, Atg-7, and LC3B (Atg-5, Atg-7, and LC3B): inhibited | lipidation of LC3B-II (LC3B): significantly suppressed | Virus titer (Embryonated chicken egg) [1]: 10^8 ^* EID50/ml | CC50 at 48 h [2]: > 280 µM
